Results from US8221728B2, “Silanic para-aminobenzalmalonate-substituted s-triazine compounds and photoprotective compositions comprised thereof” (L'Oreal, priority 2004, dated 2012).
“And” between values parts separate entries of the source, which are not always exact repeats. Equal entries are not always repeated. Values belong to the molecule of their own block, whether it stands above or below them.

Assays:
[1] = UV absorption spectrum in ethanol; assay type: physicochemical
Protocol: 2,4,6-Tris(diethyl 4′-aminobenzalmalonate)-s-triazine (1 g, […]) (Example 1 of Application EP 0,507,691) is dissolved in 5 ml of trimethylsilylethyl alcohol while sparging with nitrogen. The mixture is subsequently heated at reflux for 25 hours with 0.2 g of para-toluenesulphonic acid. After addition of 30 ml of dichloromethane, the organic phase is washed with water and then with an aqueous sodium bicarbonate solution, and dried. It is concentrated under reduced pressure. The residue obtained is purified by chromatography on a silica column (eluent: heptane/AcOEt 85/15). 0.35 g (Yield 32%) of the derivative of Example 2 is collected in the form of a pale yellow gum: • UV (ethanol) λ max=355 nm; ε max=125 250;E1%=965. […]

[2] = Photostability of a film of 5% solution in Miglyol 812 under Oriel solar simulator, HPLC quantification; assay type: physicochemical; settings: 5% by weight in Miglyol 812, 1 mg/cm^2 film, irradiated one hour, solar simulator UV-A=14.2 mW/cm^2, UV-B=0.41 mW/cm^2
Protocol: The two products were dissolved at 5% by weight in the oil Miglyol 812. Approximately 10 mg of oily solution are spread over 10 cm^2 at the surface of a hollow disc of frosted glass; the amount is determined by weighing.
The films of the oily solutions are irradiated for one hour using an Oriel solar simulator (UV-A=14.2 mW/cm^2; UV-B=0.41 mW/cm^2), then extracted with 10 ml of ethanol comprising 10% of isopropanol and subjected to ultrasound for 5 min. The products are quantified by HPLC of the extracts.
HPLC conditions: column: UP5WOD-25QS, 250×4.6 mm, 5 μm, Interchrom; eluent: methanol (Comparative Example 1) and 96% of methanol+4% of water (Example 1); flow rate: 1 ml/min; volume injected: 10 μl; detection: diode array; rt (min): 5.2 (Comparative Example 1) and 13.8 (Example 1).
The degrees of loss are determined by comparison of the amounts of product present in the irradiated samples and in the non-irradiated controls prepared simultaneously and treated in the same way (means over 3 samples; S=surface/mg solution): % loss=100×(So−Sirr)/So

Molecule: 2,4,6-tris(di(trimethylsilylmethyl) 4′-aminobenzalmalonate)-s-triazine [Example 1]
E1% [1]: 987
ε max [1]: 118 970
λ max [1]: 355 nm

% of disappearance (% loss) [2]: 11% and 10% and 9%
Molecule: CC(C)COC(=O)C(=Cc1ccc(Nc2nc(Nc3ccc(C=C(C(=O)OCC(C)C)C(=O)OCC(C)C)cc3)nc(Nc3ccc(C=C(C(=O)OCC(C)C)C(=O)OCC(C)C)cc3)n2)cc1)C(=O)OCC(C)C [Compound (prior art), 2,4,6-Tris(diisobutyl 4′-aminobenzalmalonate)-s-triazine]

Molecule: C[Si](C)(C)CCOC(=O)C(=Cc1ccc(Nc2nc(Nc3ccc(C=C(C(=O)OCC[Si](C)(C)C)C(=O)OCC[Si](C)(C)C)cc3)nc(Nc3ccc(C=C(C(=O)OCC[Si](C)(C)C)C(=O)OCC[Si](C)(C)C)cc3)n2)cc1)C(=O)OCC[Si](C)(C)C [Example 2, 2,4,6-tris(di(trimethylsilylethyl) 4′-aminobenzalmalonate)-s-triazine]
E1% [1]: 965
ε max [1]: 125 250
λ max [1]: 355 nm
